BindingDB's records for PubMed 7523657 (Eli Lilly, 1994)

What was measured:
[1] = target: 5-hydroxytryptamine receptor 2A (Rattus norvegicus, UniProt P14842)
D(2) dopamine receptor = D(2) dopamine receptor (Rattus norvegicus, UniProt P61169)
[2] = target: 5-hydroxytryptamine receptor 1B (Rattus norvegicus, UniProt P28564)
[3] = target: T1, Alpha-1A adrenergic receptor (Rattus norvegicus, UniProt P43140)
T1 sequence (P43140 whole entry): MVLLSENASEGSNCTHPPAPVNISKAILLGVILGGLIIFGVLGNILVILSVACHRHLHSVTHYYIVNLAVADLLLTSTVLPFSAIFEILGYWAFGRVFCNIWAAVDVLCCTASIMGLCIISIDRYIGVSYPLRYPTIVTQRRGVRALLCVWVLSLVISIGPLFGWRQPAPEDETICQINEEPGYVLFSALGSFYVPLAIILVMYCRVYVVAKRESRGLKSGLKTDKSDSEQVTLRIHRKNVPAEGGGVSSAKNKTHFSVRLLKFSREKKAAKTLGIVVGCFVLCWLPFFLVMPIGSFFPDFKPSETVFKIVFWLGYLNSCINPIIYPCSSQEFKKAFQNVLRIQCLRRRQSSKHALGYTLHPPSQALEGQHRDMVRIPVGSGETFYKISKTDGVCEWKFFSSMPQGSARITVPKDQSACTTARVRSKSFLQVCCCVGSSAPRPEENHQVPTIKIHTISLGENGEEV

[4] = target: T2, 5-hydroxytryptamine receptor 2C (Rattus norvegicus, UniProt P08909)
T2 sequence (P08909 whole entry): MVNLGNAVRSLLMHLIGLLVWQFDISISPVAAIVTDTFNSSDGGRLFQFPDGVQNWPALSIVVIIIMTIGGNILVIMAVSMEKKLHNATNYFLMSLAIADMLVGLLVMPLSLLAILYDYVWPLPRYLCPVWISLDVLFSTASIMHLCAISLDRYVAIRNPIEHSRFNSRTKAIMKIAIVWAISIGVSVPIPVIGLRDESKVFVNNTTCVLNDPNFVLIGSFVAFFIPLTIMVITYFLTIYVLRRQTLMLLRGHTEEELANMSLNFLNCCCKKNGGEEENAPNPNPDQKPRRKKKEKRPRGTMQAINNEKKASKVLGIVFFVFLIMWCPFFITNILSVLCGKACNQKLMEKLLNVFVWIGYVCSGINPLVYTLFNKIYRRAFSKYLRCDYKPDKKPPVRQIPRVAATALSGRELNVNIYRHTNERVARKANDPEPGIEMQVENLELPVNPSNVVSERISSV

[5] = target: Gamma-aminobutyric acid receptor subunit alpha-1 (Rattus norvegicus, UniProt P62813)
Gamma-aminobutyric acid receptor subunit alpha-1, sequence (P62813 whole entry): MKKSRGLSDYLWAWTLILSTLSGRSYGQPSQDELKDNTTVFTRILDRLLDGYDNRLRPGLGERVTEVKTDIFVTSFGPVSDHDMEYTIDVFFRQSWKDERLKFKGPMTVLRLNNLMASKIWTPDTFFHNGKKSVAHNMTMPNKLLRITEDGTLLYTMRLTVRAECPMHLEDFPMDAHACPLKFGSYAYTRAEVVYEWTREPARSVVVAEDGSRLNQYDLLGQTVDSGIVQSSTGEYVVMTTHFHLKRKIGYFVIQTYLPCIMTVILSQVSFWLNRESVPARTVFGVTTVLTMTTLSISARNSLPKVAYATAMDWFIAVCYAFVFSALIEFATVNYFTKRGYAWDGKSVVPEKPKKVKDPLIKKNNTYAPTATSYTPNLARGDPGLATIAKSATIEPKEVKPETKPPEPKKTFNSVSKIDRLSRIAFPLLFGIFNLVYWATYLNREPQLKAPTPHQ

[6] = target: 5-hydroxytryptamine receptor 1D (Rattus norvegicus, UniProt P28565)
5-hydroxytryptamine receptor 1D, sequence (P28565 whole entry): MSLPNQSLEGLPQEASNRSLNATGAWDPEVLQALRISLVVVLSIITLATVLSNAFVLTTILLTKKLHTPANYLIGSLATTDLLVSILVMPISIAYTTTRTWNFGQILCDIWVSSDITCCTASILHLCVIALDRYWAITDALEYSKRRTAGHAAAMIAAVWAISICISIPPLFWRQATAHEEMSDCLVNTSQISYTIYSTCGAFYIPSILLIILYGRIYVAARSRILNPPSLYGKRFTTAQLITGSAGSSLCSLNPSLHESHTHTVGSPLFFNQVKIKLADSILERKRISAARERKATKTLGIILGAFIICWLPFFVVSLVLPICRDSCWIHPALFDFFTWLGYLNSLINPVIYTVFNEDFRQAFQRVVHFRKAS

[7] = target: T3, 5-hydroxytryptamine receptor 3A (Rattus norvegicus, UniProt P35563)
T3 sequence (P35563 whole entry): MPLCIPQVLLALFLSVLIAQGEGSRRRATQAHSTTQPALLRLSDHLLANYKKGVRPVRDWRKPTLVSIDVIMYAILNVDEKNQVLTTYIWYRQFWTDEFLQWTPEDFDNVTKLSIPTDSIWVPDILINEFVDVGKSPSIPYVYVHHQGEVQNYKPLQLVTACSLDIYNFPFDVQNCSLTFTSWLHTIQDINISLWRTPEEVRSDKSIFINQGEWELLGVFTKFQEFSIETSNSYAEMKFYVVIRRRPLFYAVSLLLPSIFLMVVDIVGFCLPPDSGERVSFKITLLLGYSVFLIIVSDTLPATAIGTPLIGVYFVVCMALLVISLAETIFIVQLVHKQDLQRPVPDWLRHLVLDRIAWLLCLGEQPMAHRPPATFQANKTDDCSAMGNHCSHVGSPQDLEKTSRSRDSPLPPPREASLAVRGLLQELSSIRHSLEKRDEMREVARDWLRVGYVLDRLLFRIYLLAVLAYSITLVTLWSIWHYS

[8] = target: T4, Alpha-2C adrenergic receptor (Rattus norvegicus, UniProt P22086)
T4 sequence (P22086 whole entry): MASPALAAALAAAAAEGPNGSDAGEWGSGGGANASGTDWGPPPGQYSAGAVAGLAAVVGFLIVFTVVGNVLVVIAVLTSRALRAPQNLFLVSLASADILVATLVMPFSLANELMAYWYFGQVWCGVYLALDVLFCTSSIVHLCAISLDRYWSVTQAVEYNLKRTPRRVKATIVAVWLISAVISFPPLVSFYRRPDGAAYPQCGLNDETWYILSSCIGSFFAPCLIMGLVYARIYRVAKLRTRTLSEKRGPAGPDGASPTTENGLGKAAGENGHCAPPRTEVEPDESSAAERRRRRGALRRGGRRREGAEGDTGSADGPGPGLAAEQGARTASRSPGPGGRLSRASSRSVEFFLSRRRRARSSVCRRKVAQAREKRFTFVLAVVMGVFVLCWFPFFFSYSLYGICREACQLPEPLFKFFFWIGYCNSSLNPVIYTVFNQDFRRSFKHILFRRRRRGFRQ

[9] = target: T5, Muscarinic acetylcholine receptor M2 (Rattus norvegicus, UniProt P10980)
T5 sequence (P10980 whole entry): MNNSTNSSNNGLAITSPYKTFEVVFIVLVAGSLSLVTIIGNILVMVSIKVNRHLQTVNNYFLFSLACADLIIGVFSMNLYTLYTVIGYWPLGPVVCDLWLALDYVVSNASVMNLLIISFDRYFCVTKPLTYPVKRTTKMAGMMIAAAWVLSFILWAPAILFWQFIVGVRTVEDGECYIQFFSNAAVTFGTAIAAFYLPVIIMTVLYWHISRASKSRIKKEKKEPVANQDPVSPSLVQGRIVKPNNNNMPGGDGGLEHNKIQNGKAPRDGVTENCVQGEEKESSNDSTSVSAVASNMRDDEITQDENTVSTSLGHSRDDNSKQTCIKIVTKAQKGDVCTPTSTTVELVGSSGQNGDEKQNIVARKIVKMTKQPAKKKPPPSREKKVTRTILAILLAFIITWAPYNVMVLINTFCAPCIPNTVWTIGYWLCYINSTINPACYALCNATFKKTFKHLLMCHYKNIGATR

D(1A) dopamine receptor = D(1A) dopamine receptor (Rattus norvegicus, UniProt P18901)
D(1A) dopamine receptor, sequence (P18901 whole entry): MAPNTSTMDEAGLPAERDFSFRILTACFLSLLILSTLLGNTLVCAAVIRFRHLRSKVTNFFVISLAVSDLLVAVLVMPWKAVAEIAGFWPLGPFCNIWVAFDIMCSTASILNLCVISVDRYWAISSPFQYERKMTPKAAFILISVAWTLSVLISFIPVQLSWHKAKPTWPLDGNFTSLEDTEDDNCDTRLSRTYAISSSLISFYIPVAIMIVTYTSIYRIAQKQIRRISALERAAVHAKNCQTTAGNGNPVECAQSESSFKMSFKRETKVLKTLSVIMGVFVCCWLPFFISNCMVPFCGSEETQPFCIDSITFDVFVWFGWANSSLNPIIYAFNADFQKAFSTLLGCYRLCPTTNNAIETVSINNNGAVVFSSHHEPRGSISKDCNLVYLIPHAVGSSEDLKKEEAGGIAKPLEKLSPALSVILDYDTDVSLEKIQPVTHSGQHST

Histamine H1 receptor = Histamine H1 receptor (Rattus norvegicus, UniProt P31390)
Histamine H1 receptor, sequence (P31390 whole entry): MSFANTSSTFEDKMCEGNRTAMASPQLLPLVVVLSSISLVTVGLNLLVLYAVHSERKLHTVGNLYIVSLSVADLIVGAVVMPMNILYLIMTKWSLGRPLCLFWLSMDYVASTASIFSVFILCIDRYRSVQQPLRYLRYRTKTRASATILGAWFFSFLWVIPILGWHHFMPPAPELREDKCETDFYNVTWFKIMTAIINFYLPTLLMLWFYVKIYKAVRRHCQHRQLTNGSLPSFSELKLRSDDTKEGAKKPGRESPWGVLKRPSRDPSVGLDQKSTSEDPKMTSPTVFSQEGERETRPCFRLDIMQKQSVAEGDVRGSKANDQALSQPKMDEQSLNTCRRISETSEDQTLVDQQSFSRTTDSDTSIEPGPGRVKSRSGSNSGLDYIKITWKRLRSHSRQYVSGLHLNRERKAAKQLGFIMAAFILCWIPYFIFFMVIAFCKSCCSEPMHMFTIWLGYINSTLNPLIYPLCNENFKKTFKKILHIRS

[10] = target: Beta-2 adrenergic receptor (Rattus norvegicus, UniProt P10608)
Beta-2 adrenergic receptor, sequence (P10608 whole entry): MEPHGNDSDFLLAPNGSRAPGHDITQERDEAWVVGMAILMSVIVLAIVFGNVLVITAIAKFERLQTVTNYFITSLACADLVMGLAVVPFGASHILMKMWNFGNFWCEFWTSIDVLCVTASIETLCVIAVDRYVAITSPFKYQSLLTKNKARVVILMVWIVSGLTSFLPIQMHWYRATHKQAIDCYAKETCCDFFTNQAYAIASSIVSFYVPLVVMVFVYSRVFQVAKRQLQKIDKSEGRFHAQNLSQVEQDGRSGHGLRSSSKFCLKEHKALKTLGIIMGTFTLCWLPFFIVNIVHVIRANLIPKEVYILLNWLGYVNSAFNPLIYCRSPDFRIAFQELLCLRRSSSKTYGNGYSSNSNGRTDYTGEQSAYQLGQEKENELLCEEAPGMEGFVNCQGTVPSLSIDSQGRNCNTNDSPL

D(2) dopamine receptor, sequence (P61169 whole entry): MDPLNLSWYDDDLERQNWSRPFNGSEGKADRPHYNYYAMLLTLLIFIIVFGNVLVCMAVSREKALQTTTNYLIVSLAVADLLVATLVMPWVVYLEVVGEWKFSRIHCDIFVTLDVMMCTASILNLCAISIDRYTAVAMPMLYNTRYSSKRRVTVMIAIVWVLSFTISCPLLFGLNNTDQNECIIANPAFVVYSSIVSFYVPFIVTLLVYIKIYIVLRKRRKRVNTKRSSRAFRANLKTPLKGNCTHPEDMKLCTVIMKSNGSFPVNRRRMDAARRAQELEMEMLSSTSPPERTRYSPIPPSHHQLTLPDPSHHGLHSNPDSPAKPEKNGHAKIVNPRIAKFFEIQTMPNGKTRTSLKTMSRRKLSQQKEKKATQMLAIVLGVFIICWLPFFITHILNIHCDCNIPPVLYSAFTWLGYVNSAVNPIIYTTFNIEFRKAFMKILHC
5-hydroxytryptamine receptor 2A, sequence (P14842 whole entry): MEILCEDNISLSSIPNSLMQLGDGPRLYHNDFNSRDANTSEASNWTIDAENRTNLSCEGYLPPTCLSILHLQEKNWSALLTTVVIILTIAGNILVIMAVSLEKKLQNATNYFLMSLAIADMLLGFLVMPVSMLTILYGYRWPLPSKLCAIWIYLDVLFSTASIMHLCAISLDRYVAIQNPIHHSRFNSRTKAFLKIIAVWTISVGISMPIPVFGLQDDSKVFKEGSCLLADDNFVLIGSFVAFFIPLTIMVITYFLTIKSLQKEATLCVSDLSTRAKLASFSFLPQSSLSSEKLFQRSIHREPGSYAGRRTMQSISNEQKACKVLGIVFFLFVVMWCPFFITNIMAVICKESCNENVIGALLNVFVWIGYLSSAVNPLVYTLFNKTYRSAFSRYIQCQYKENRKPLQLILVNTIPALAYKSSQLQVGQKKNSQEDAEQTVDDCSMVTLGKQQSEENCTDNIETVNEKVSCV
5-hydroxytryptamine receptor 1B, sequence (P28564 whole entry): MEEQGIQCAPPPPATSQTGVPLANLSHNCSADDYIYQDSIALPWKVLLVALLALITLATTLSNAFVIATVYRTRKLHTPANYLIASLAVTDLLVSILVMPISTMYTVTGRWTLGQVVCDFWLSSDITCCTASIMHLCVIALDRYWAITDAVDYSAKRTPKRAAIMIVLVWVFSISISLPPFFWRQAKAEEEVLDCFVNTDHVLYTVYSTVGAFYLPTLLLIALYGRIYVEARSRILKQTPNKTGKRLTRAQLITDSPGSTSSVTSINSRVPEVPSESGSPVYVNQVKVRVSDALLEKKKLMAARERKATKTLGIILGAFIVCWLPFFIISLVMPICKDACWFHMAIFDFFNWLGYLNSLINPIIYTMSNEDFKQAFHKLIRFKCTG

Structure (SMILES): CCCN(CCC)C1Cc2c[nH]c3ccc(C(C)=O)c(c23)C1 (stereo not drawn) [LY-293384]
- Ki [1]: 1000 nM
- Ki (D(2) dopamine receptor): 1000 nM
- Ki [2]: 1000 nM
- Ki [3]: 1000 nM
- Ki [4]: 1000 nM
- Ki [5]: 1000 nM
- Ki [6]: 66.9 nM
- Ki [7]: 1000 nM
- Ki [8]: 1000 nM
- Ki [9]: 1000 nM
- Ki (D(1A) dopamine receptor): 1000 nM
- Ki (Histamine H1 receptor): 1000 nM
- Ki [10]: 1000 nM
